The target in one assay is CDK5 (Homo sapiens, UniProt Q00535). The following applies: cited from earlier work.
In a further assay the target is CDK4 (Homo sapiens, UniProt P11802). The following applies: cited from earlier work.
The next assay has as its target CDK1 (Homo sapiens, UniProt P06493). Particulars: cited from earlier work.
The next assay deals with CDK9 (Homo sapiens, UniProt P50750). On the set-up: key: + is used to indicate the potency of the inhibitor; ++++ > +++ > ++ > +; + is used to indicate the potency of the inhibitor; ++++ > +++ > ++ > +; + is used to indicate the potency of the inhibitor; ++++ > +++ > ++ > +; + is used to indicate the potency of the inhibitor; ++++ > +++ > ++ > +; ◯ refers to compounds with inhibitory effects on the related isoform, but without specific value. The following applies: cited from earlier work.

For another assay, the target named is CDK6 (Homo sapiens, UniProt Q00534). On the set-up: key to the marks not given beside the values. Particulars: cited from earlier work.
A further assay has as its target CDK2 (Homo sapiens, UniProt P24941). Particulars: cited from earlier work.
The next assay deals with CDK7 (Homo sapiens, UniProt P50613). The following applies: cited from earlier work.
For assay [1], the system named is pseudovirus with the ancestral G614 S protein. The class given is cell-based, SARS-CoV-2.
The test system of assay [2] is ACE2, TMPRSS2, and CTSL. Briefly: mRNA levels in normal human small airway epithelial cells (qRT-PCR). The class given is cell-based. Particulars: normal HSAEC, rhCHI3L1 500 ng/mL, 24 hours. As to the method:
HSAEC were incubated with the noted concentrations of recombinant rhCHI3L1 for 24 hours. The levels of mRNA encoding ACE2, TMPRSS2, and CTSL were assessed via qRT-PCR. The levels are expressed in relationship to GAPDH controls. *p<0.05 (Student's t-test).
Total cellular RNA was obtained using TRIzol reagent (ThermoFisher Scientific) followed by RNA extraction using RNeasy Mini Kit (Qiagen, Germantown, MD) according to the manufacturer's instructions. mRNA was measured and used for real time (RT)-PCR as described previously.^79,80 The primer sequences used in these studies are summarized in Table 1. Ct values of the test genes were normalized to the internal housekeeping gene […].
In the present study, normal HSAEC were incubated with 0, 100 ng/mL, or 500 ng/mL of rhCHI3L1 for 24 hours at 37° C. The levels of mRNA encoding ACE2, TMPRSS2, and CTSL were assessed via qRT-PCR and expressed in relationship to GAPDH controls.
For orientation: In qPCR the cycle at which signal appears reflects the starting amount.

The test system of assay [3] is pseudovirus containing the S protein (D614 and G614 variants). The class given is cell-based. The following applies: Calu-3 cells, rCHI3L1 24 hours, GFP.
A further assay concerns TMPRSS2, CTSL and FURIN. The class given is cell-based, human.
Assay [4] relates to ACE2, TMPRSS2, and CTSL. Kind of assay: mRNA levels in A549 cells (qRT-PCR). The class given is cell-based, human. The following applies: 24 hr. As to the method:
Cells were incubated with rhCHI3L1 from a commercial source (R&D Inc.) and rhCHI3L1 generated at Brown University (Brown) and compared to vehicle controls. mRNA was then extracted and the levels of mRNA for ACE2 and CTSL were evaluated by real time qRT-PCR. Levels were expressed in relationship to GAPDH controls. *p<0.05; **p<0.01 (Student's t-test).
A549 cells were incubated with the noted concentrations of rhCHI3L1 for the note amounts of time. The levels of mRNA encoding ACE2, TMPRSS2, and CTSL were assessed via qRT-PCR. The statistics compare cells incubated with vehicle control (nothing tested, NT) and cells incubated with 250 ng/ml of rhCHI3L1. […]
Total cellular RNA was obtained using TRIzol reagent (ThermoFisher Scientific) followed by RNA extraction using RNeasy Mini Kit (Qiagen, Germantown, MD) according to the manufacturer's instructions. mRNA was measured and used for real time (RT)-PCR as described previously.^79,80 The primer sequences used in these studies are summarized in Table 1. […]
In the first study, A549 cells were incubated with rhCHI3L1 from a commercial source (R&D Inc.) and rhCHI3L1 generated at Brown University (Brown). The cells were incubated for 24 hr with stimulation of rhCHI3L1 (500 ng/mL) at 37° C. mRNA was then extracted and the levels of mRNA for ACE2 and CTSL were evaluated by real time qRT-PCR and compared to vehicle controls. […]

The test system of assay [5] is ACE2. Briefly: Immunocytochemical evaluation of ACE2 in Calu-3 cells. The class given is cell-based, human. Particulars: CHI3L1 250 ng/mL; double labeled ICC.
Assay [6] concerns pseudoviruses with delta S proteins. The class given is cell-based, SARS-CoV-2.
Assay [7] relates to ACE2. The class given is cell-based, human.
The next assay relates to CLK. On the set-up: key: + is used to indicate the potency of the inhibitor; ++++ > +++ > ++ > +; + is used to indicate the potency of the inhibitor; ++++ > +++ > ++ > +; + is used to indicate the potency of the inhibitor; ++++ > +++ > ++ > +; + is used to indicate the potency of the inhibitor; ++++ > +++ > ++ > +; ◯ refers to compounds with inhibitory effects on the related isoform, but without specific value. The following applies: cited from earlier work.

Setting [8] is: Calu-3 cells, rhCHI3L1 250 ng/mL, 24 hours, vs vehicle.

Counter-ions that a name gives are not always drawn.

Chain of CDK6 (Q00534 whole entry): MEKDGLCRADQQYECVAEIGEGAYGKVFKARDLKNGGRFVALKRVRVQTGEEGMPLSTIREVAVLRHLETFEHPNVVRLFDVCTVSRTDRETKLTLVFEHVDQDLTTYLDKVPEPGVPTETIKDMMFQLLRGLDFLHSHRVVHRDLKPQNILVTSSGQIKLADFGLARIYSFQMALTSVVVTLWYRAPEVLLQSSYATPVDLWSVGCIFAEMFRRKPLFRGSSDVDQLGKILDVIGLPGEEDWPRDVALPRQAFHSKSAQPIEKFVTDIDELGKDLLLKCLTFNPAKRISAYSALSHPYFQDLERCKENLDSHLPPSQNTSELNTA
Chain of CDK6 (P30281 whole entry, further chain): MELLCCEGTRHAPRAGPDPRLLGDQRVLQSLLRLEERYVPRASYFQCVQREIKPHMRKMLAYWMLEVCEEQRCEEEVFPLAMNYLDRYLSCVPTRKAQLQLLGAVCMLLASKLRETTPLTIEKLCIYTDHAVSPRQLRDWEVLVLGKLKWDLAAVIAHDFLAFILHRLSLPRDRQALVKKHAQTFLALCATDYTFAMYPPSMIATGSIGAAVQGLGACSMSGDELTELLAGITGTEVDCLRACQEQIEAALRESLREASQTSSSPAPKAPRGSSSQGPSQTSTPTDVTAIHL
Chain of CDK1 (P06493 whole entry, species assumed, canonical isoform): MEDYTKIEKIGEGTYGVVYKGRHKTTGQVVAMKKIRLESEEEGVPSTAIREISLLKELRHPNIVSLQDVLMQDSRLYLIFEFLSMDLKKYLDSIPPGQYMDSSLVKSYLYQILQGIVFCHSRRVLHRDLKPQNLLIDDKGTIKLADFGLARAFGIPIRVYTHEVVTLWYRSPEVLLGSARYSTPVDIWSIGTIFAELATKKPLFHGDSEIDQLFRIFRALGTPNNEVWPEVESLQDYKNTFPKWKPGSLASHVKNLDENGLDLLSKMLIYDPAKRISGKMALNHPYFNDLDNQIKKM
Chain of CDK1 (P14635 whole entry partner, species assumed, canonical isoform): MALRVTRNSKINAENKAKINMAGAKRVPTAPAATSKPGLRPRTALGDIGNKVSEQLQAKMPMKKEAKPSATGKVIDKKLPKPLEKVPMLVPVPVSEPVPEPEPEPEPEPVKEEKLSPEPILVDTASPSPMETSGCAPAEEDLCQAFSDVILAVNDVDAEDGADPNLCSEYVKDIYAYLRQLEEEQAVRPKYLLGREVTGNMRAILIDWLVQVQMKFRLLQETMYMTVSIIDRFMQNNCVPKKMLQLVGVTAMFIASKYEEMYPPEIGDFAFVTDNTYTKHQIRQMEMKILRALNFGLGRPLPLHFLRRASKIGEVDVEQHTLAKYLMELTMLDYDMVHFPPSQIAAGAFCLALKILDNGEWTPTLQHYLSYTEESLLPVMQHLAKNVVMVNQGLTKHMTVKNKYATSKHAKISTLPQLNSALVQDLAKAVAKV
Chain of CDK9 (P50750 whole entry, canonical isoform): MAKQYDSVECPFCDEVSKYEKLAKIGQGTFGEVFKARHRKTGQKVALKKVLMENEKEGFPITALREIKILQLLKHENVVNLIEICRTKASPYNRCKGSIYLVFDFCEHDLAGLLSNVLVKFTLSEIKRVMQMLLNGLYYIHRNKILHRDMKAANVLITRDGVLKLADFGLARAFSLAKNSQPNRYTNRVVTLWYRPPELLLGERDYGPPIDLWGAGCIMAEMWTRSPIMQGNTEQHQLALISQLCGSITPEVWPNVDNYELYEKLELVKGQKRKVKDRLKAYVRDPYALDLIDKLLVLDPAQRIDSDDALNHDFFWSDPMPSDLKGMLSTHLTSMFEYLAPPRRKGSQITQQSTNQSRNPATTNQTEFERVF
Chain of CDK9 (O60563 whole entry, further chain, canonical isoform): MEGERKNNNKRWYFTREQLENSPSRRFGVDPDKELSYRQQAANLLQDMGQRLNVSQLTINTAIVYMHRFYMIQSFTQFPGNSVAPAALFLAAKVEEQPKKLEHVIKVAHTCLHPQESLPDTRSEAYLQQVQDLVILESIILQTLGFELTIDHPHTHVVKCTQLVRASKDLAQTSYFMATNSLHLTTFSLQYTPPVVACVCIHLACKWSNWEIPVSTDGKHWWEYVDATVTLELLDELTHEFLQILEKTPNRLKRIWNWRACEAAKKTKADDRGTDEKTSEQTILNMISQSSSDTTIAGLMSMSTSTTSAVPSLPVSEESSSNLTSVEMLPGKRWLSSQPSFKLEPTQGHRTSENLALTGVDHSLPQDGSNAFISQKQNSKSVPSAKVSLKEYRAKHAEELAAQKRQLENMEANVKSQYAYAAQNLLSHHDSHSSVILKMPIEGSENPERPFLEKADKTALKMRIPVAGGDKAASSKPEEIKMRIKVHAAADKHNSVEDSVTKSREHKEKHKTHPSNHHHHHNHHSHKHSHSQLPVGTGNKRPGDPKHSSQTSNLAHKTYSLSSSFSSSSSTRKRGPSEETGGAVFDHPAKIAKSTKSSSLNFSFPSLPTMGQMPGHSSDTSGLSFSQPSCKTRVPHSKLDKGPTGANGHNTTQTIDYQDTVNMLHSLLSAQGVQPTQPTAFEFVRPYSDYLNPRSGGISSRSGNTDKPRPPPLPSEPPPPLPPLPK
Chain of CDK5 (Q15078 99-307): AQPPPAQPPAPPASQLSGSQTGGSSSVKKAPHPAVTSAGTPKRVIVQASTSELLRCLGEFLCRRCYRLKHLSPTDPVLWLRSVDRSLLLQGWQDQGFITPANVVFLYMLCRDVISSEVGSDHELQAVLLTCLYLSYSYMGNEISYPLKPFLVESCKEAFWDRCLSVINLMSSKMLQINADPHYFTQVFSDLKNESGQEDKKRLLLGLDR
Chain of CDK5 (Q00535 whole entry): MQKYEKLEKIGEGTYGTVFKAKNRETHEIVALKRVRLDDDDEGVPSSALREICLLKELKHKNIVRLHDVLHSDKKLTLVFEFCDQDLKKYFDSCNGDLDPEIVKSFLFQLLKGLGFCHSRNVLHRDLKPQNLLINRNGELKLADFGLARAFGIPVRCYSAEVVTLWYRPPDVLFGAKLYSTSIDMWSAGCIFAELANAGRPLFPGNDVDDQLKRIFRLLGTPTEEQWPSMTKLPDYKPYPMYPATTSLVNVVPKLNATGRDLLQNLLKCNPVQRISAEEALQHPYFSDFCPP
Chain of CDK7 (P50613 whole entry): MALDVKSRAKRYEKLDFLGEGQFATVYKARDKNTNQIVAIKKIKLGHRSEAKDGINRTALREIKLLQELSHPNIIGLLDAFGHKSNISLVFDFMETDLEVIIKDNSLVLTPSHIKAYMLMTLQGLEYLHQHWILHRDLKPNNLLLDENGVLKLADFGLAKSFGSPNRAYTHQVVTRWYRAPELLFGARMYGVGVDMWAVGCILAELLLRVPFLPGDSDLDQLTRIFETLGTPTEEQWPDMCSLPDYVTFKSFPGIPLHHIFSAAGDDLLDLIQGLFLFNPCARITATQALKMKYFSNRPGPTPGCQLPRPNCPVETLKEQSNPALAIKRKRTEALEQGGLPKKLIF
Chain of CDK7 (P51946 whole entry, further chain): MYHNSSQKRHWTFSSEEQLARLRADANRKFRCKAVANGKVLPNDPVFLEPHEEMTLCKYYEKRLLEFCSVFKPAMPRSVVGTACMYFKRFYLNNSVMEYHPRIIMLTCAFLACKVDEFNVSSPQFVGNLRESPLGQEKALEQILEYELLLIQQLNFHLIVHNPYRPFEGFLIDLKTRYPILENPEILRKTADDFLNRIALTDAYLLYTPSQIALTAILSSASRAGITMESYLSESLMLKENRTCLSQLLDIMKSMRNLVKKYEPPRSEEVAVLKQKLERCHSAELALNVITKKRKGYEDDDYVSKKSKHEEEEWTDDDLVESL
Chain of CDK7 (P51948 whole entry, further chain): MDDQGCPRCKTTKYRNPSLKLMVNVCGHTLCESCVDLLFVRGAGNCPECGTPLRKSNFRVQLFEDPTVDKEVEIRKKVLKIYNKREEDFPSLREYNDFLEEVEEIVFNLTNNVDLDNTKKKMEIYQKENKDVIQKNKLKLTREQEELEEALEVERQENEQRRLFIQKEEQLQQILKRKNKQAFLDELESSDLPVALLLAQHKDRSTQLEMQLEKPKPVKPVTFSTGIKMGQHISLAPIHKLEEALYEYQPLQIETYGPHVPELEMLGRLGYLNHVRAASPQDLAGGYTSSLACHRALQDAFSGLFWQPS
Chain of CDK4 (P11802 whole entry, species assumed): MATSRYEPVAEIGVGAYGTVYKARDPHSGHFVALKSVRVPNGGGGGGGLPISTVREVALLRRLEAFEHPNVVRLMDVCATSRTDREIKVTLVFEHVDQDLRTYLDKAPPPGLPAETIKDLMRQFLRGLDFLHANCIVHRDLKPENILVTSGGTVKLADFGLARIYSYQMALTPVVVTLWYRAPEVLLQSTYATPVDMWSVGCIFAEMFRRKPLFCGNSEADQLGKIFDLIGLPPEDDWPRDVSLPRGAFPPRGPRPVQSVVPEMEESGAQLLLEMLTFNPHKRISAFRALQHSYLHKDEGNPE
Chain of CDK4 (P24385 whole entry partner, species assumed): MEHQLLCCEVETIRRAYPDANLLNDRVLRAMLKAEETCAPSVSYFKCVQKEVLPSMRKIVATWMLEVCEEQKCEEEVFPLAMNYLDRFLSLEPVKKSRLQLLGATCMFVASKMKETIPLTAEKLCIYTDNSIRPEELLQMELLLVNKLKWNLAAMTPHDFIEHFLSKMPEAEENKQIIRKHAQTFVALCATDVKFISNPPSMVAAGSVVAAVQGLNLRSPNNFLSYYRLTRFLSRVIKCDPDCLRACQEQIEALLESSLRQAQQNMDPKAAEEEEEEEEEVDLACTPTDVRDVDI

Consider `O=C(NC1CCNCC1)c1[nH]ncc1NC(=O)c1c(Cl)cccc1Cl` [AT7519 HCl], for which, at CDK5, the “Inhibitory potency CDK5” value is given as “+++”. In addition, the “Inhibitory potency CDK4” value on CDK4 was “++”. Also, the “Inhibitory potency CDK1” value at CDK1 was “++”. The “Inhibitory potency CDK9” value at CDK9 is recorded as “++++”. Besides, on CDK6, the “Inhibitory potency CDK6” value is “++”.

In the case of `CNC(=O)c1nn(C)c2c1C(C)(C)Cc1cnc(Nc3ccc(N4CCN(C)CC4)cc3)nc1-2` [Milciclib], on CDK2, the “Inhibitory potency CDK2” value is “+++”. Moreover, at CDK5, the “Inhibitory potency CDK5” value is on record as “+”. For the same compound, the “Inhibitory potency CDK4” value at CDK4 was “++”. The “Inhibitory potency CDK1” value on CDK1 is recorded as “+”. For the same compound, the “Inhibitory potency CDK7” value on CDK7 was “++”.

As for “rhCHI3L1: recombinant human CHI3L1 (chitinase 3 like 1) protein, from R&D Inc. or generated at Brown University”, the uptake of pseudovirus result in assay [1] is recorded as “potent stimulator”. Also, the “levels of mRNA encoding ACE2, TMPRSS2, and CTSL” value is given as “significantly upregulated” in the assay with ACE2, TMPRSS2, and CTSL [2]; “significantly upregulated” in the assay with ACE2, TMPRSS2, and CTSL [4] (rhCHI3L1 250 or 500 ng/mL). Besides, in [3], the “cellular integration of S proteins” value is on record as “stimulated”. Besides, the “levels of mRNA encoding TMPRSS2, CTSL and FURIN” value in the assay with TMPRSS2, CTSL and FURIN (setting [8]) is on record as “significantly upregulated”. For the same compound, the “levels of mRNA encoding Ace2 and cathepsin L (CTSL)” value in the assay on ACE2, TMPRSS2, and CTSL [4] (rhCHI3L1 500 ng/mL, 37° C.) is “significantly upregulated”. Further, in the assay on ACE2 [5], the “Calu-3 cell ACE2 accumulation” value was “augmented”. In addition, in assay [6], the delta pseudovirus infection result is on record as “augmented”. For the same compound, in the assay on ACE2 [7] (setting [8]), the “levels of mRNA encoding ACE2” value is “significantly upregulated”.

In the case of Purvalanol A, the “Inhibitory potency CDK4” value at CDK4 was “+”.

For the compound `Cc1ncc(-c2ccnc(Nc3ccc(S(C)(=O)=O)cc3)n2)n1C(C)C` [AZD5438], the “Inhibitory potency CDK1” value at CDK1 was “+++”. In addition, the “Inhibitory potency CDK9” value on CDK9 was “+++”.

With LDC000067, at CDK4, the “Inhibitory potency CDK4” value is on record as “+”. On CDK1, the “Inhibitory potency CDK1” value is on record as “+”. The “Inhibitory potency CDK9” value at CDK9 is given as “+++”.

In the case of TG003, the “Inhibitory potency CLK” value with CLK is given as “+++”.

Turning to NU2058, the “Inhibitory potency CDK1” value on CDK1 is “+”.

On to Kenpaulione, for which the “Inhibitory potency CDK2” value at CDK2 is “+”. For the same compound, at CDK5, the “Inhibitory potency CDK5” value was “+”. Further, at CDK1, the “Inhibitory potency CDK1” value is “+”.

Consider NU 6102, for which the “Inhibitory potency CDK4” value on CDK4 was “+”. Further, the “Inhibitory potency CDK1” value on CDK1 is listed as “+++”.

Regarding Ro-3306, the “Inhibitory potency CDK1” value on CDK1 was “+++”.

With NVP-LCQ195, the “Inhibitory potency CDK2” value at CDK2 is given as “+++”. Besides, the “Inhibitory potency CDK5” value on CDK5 is reported as “++++”. Further, the “Inhibitory potency CDK1” value on CDK1 is “++++”. On CDK9, the “Inhibitory potency CDK9” value is listed as “◯”. In the assay with CLK, the “Inhibitory potency CLK” value was “◯”.

With Palbociclib Isethionate, the “Inhibitory potency CDK6” value at CDK6 is on record as “+++”.

With `COc1ccc(CNc2nc(N(CCO)CCO)nc3c2ncn3C(C)C)cc1` [CVT 313], at CDK2, the “Inhibitory potency CDK2” value is given as “+”. For the same compound, the “Inhibitory potency CDK4” value on CDK4 is “+”. On CDK1, the “Inhibitory potency CDK1” value is given as “+”.

As to Purvalanol B, at CDK5, the “Inhibitory potency CDK5” value is “++++”.

For CGP60474, on CDK2, the “Inhibitory potency CDK2” value is “+++”. In addition, the “Inhibitory potency CDK1” value on CDK1 is “+++”.

In the case of `COc1c(O)cc(O)c2c(=O)cc(-c3ccccc3)oc12` [Wogonin], on CDK9, the “Inhibitory potency CDK9” value was “◯”.

In the case of `CCCCOc1c(C(=O)c2c(F)cc(C)cc2F)c[nH]c2nncc1-2` [BMS-265246], the “Inhibitory potency CDK2” value on CDK2 is “++++”. Besides, the “Inhibitory potency CDK4” value on CDK4 is reported as “++”. Besides, the “Inhibitory potency CDK1” value at CDK1 was “++++”.

In the case of ML167, in the assay on CLK, the “Inhibitory potency CLK” value is “++”.

`O=C(NC1CCNCC1)c1[nH]ncc1NC(=O)c1c(Cl)cccc1Cl` [AT7519]: the “Inhibitory potency CDK7” value at CDK7 was “+”.

Take PHA-767491: the “Inhibitory potency CDK2” value at CDK2 is listed as “++”. For the same compound, the “Inhibitory potency CDK5” value at CDK5 was “+”. In addition, the “Inhibitory potency CDK1” value on CDK1 was “++”. In addition, the “Inhibitory potency CDK9” value at CDK9 was “+++”.

As for `CN1CC[C@H](c2c(O)cc(O)c3c(=O)cc(-c4ccccc4Cl)oc23)[C@H](O)C1` [Flavopiridol], the “Inhibitory potency CDK2” value on CDK2 was “+++”. Further, the “Inhibitory potency CDK4” value on CDK4 is “+++”. In addition, the “Inhibitory potency CDK1” value on CDK1 is on record as “+++”. Further, the “basal and CHI3L1-stimulated expression of TMPRSS2, CTSL and FURIN” value in the assay on TMPRSS2, CTSL and FURIN was “potently decreased”. Moreover, at CDK7, the “Inhibitory potency CDK7” value was “+”. On CDK6, the “Inhibitory potency CDK6” value is on record as “++”. Also, in the assay on ACE2 [7], the “ability of CHI3L1 to stimulate ACE2 mRNA accumulation” value is reported as “potently inhibited” and the “levels of basal ACE2 expression” value is reported as “diminished”.

Take `Nc1nc(Nc2ccc(S(N)(=O)=O)cc2)nn1C(=O)c1c(F)cccc1F` [JNJ-7706621]: the “Inhibitory potency CDK2” value at CDK2 was “++++”. Besides, the “Inhibitory potency CDK4” value at CDK4 is recorded as “+”. At CDK1, the “Inhibitory potency CDK1” value is given as “++++”. Besides, the “Inhibitory potency CDK6” value on CDK6 was “++”.

`CC(C)(C)c1cnc(CSc2cnc(NC(=O)C3CCNCC3)s2)o1` [SNS-032]: on CDK5, the “Inhibitory potency CDK5” value is listed as “+”. Also, the “Inhibitory potency CDK1” value on CDK1 was “+”. In addition, the “Inhibitory potency CDK9” value on CDK9 is listed as “++++”.

For `C[C@H]1CC[C@H](n2c3cnccc3c3cnc(Nc4ccc5c(n4)CCN(C(=O)CO)C5)nc32)CC1` [AMG-925], the “Inhibitory potency CDK4” value on CDK4 is listed as “++++”. Further, on CDK1, the “Inhibitory potency CDK1” value was “+”.

For the compound `Cn1cc(-c2cnn3c(N)c(Br)c([C@@H]4CCCNC4)nc23)cn1` [MK-8776], the “Inhibitory potency CDK2” value on CDK2 is on record as “++”.

Take `CC(C)CC(=O)Nc1[nH]nc2c1CN(C(=O)C1CCN(C)CC1)C2(C)C` [PHA-793887]: the “Inhibitory potency CDK2” value at CDK2 is on record as “++++”. In addition, the “Inhibitory potency CDK5” value on CDK5 is reported as “++++”. Further, the “Inhibitory potency CDK4” value at CDK4 is on record as “++”. The “Inhibitory potency CDK1” value at CDK1 is recorded as “++”. Moreover, the “Inhibitory potency CDK9” value on CDK9 is reported as “++”. For the same compound, the “Inhibitory potency CDK7” value at CDK7 is listed as “++++”.

With NU6027, the “Inhibitory potency CDK1” value at CDK1 is recorded as “+”.
